Test results from paper PMC6946680, “Modulation of brain cation-Cl^− cotransport via the SPAK kinase inhibitor ZT-1a” (Nature Communications, 2020).
Values joined by “and” are separate entries in the source; they are usually repeats but may differ in a detail not shown here. Equal entries are not always repeated. Where two headings read alike, the source gives them in different places.

Key:
[1] = test system: mouse model of ischemic stroke (tMCAO); assay: Infarct volume and hemispheric swelling (TTC) 24 h after tMCAO; type: in vivo; conditions: for Infarct volume (mm3): Fig 9b; for Infarct volume (mm3) / Hemisphere swelling (%): individual mice; for Hemisphere swelling (%): Fig 9c
[2] = test system: C57BL/6J mice; assay: Kaplan-Meier survival of naive and ischemic stroke mice at 25 mg/kg; type: in vivo, mouse; conditions: for mortality in naive mice: 0-7 days, n = 3; for Days elapsed: Fig S12, single mice
Procedure: We compared the neuroprotective efficacy of Closantel with that of the pan-WNK-kinase inhibitor WNK463. […] Moreover, toxicity of Closantel and ZT-1a at 25 mg/kg in naive and ischemic stroke mice was reflected in Kaplan–Meier survival curves (Supplementary Fig. 12).
Supplemental Fig. 12 Kaplan-Meier survival curve of naïve and ischemic stroke mice treated with […]
Normal naïve C57BL/6J mice, or mice after tMCAO randomly received Closantel or ZT-1a treatment […]
was monitored for 0-7 days post-treatment. No mortality was detected in the naïve mice treated with Closantel or ZT-1a. However, all ischemic stroke mice treated with Closantel died within 2 days, with a […]
median survival of 1 day. […]
days). n = 3 per group (naïve+Closantel or naive+ZT-1a), n = 6 per group (tMCAO+vehicle or tMCAO+Closantel or tMCAO+ZT-1a), *p < 0.05, Log-rank test.

[3] = ZT-1a pharmacokinetic properties in naive mice; type: in vivo, ICR mice; conditions: mouse, plasma; for MRT inf: read-out: MRT(0-∞)
Procedure: 1 Supplemental Table 3. ZT-1a pharmacokinetic (PK) properties in naïve mice.
2 ZT-1a pharmacokinetics were determined following a single 5 mg/kg intravenous (IV) dose and a single 10 mg/kg oral (PO) dose in
3 ICR mice (N = 3 at each time point).
Samples were subjected to drug assay by LC-MS/MS, and data were analyzed by WinNonlin V6.3. Tmax =
5 time of maximum plasma concentration, Cmax = maximum plasma concentration, AUC = area under the curve (measure of exposure),
6 T1/2 = half life, CL = plasma clearance, Vz = volume of distribution, MRT, mean residence time; F = oral bioavailability.

[4] = test system: tSPAK tOSR1; assay: Immunoblot of total SPAK/OSR1 in ischemic mouse brain membrane and cytosol fractions; type: in vivo; conditions: Cytosol; IL; single samples

In the case of `Cc1cc(C(C#N)c2ccc(Cl)cc2)c(Cl)cc1NC(=O)c1cc(I)cc(I)c1O` (centres unmarked) [Closantel, reference compound], the “infarct volume and hemispheric swelling” value ([1]; Closantel 0.1 mg/kg) is reported as “ineffective”, the “infarct volume and hemispheric swelling” value ([1]; Closantel 1.0 or 2.5 mg/kg at 3 and 8 h post reperfusion) is reported as “reduced infarct volume and hemispheric swelling in a dose-dependent manner” and the “Infarct volume (mm3)” value ([1]; group Closantel 0.1) is reported as 52.64 mm3 and 37.67 mm3 and 66.15 mm3 and 91.58 mm3 and 31.83 mm3 and 54.68 mm3 and 37.74 mm3 and 60.16 mm3. For the same compound, the “Infarct volume (mm3)” value ([1]; group Closantel 1.0) was 45.07 mm3 and 60.3 mm3 and 40.86 mm3 and 27.89 mm3 and 44.96 mm3 and 50.26 mm3 and 35.08 mm3 and 36.9 mm3, the “Infarct volume (mm3)” value ([1]; group Closantel 2.5) was 19.91 mm3 and 50.06 mm3 and 19.99 mm3 and 41.45 mm3 and 32.49 mm3 and the “Hemisphere swelling (%)” value ([1]; group Closantel 0.1) was 17.46% and 13.77% and 21.57% and 18.71% and 11.16% and 11.73% and 9.03% and 12%. The “Hemisphere swelling (%)” value ([1]; group Closantel 1.0) was 14.03% and 8.76% and 11.37% and 10.48% and 8.67% and 13.59% and 10.61% and 15.28%, the “Hemisphere swelling (%)” value ([1]; group Closantel 2.5) was 3.84% and 16.57% and 8.91% and 6.76% and 4.41% and the “mortality of ischemic stroke mice” value ([2]; 25 mg/kg) was 100%. The “mortality in naive mice” value ([2]; 25 mg/kg i.p.) was “No mortality”, the “time by which all ischemic stroke mice died” value ([2]; 25 mg/kg i.p., tMCAO) was at most 2 days and the “median survival of ischemic stroke mice” value ([2]; 25 mg/kg i.p., tMCAO, n = 6) was 1 days. The Days elapsed ([2]; MCAO mice) was 1 days and 2 days, the Days elapsed ([2]; mice without MCAO) was 7 days and the “toxicity in mice at higher doses” value ([2]; ~25 mg/kg) was “toxicity”.

In the case of `Cc1cc(C(C#N)c2ccc(Cl)cc2)c(Cl)cc1NC(=O)c1cc(Cl)ccc1O` (centres unmarked) [ZT-1a, 5-chloro-N-(5-chloro-4-((4-chlorophenyl)(cyano)methyl)-2-methylphenyl)-2-hydroxybenzamide], the AUC ([3]; ICR, intravenous, 5 mg/kg, naive mice) is reported as 2340 ng·h/mL, the half-life ([3]; ICR, intravenous, 5 mg/kg, naive mice, read-out: T1/2 (plasma half-life) (converted)) is reported as 1.8 h and the half-life ([3]; ICR, iv, 5 mg/kg, IV 5 mg/kg, ICR mice, read-out: t1/2 (converted)) is reported as 1.8 h. For the same compound, the bioavailability ([3]; ICR, oral, 10 mg/kg, naive mice) was 2.2%, the half-life ([3]; ICR, po, 10 mg/kg, PO 10 mg/kg, ICR mice, read-out: t1/2 (converted)) was 2.6 h and the AUC(0-inf) ([3]; IV 5 mg/kg, ICR mice) was 2350 ng·h/mL. It also gave an AUC(0-t) ([3]; IV 5 mg/kg, ICR mice) of 2340 ng·h/mL, a C0 ([3]; IV 5 mg/kg, ICR mice) of 14900 ng/mL and a Cmax ([3]; IV 5 mg/kg, ICR mice) of 6910 ng/mL. The Tmax ([3]; IV 5 mg/kg, ICR mice) was 0.08 h, the clearance ([3]; IV 5 mg/kg, ICR mice) was 35.5 mL/min/kg and the MRT inf ([3]; IV 5 mg/kg, ICR mice) was 0.45 h. The Vd ([3]; IV 5 mg/kg, ICR mice, read-out: Vz) was 0.948 L/kg, the AUC(0-inf) ([3]; PO 10 mg/kg, ICR mice) was 105 ng·h/mL and the AUC(0-t) ([3]; PO 10 mg/kg, ICR mice) was 97.3 ng·h/mL. It also gave a Cmax ([3]; PO 10 mg/kg, ICR mice) of 94 ng/mL, a Tmax ([3]; PO 10 mg/kg, ICR mice) of 0.25 h and a bioavailability ([3]; PO 10 mg/kg, ICR mice) of 2.2%. The MRT inf ([3]; PO 10 mg/kg, ICR mice) was 3.3 h, the “reduction of cerebral hemispheric swelling” value ([1]; ZT-1a 2.5 or 5 mg/kg, vs vehicle control) was 36–54% and the infarct volume ([1]; ZT-1a from 3 h post reperfusion, 24 h post tMCAO, n = 12) was 43.6 ± 6.5 mm^3. For the same compound, the “decrease of infarct volume” value ([1]; ZT-1a from 3 h post reperfusion, 24 h post tMCAO, vs vehicle, n = 12) was ~ 44%, the “mortality in naive mice” value ([2]; 25 mg/kg i.p.) was “No mortality” and the “survival of ischemic stroke mice” value ([2]; 25 mg/kg i.p., Kaplan–Meier, n = 6) was “survived longer than Closantel-treated mice”. For the same compound, the “median survival of ischemic stroke mice” value ([2]; C57BL/6J, mouse, in vivo) was 4 days and the “tSPAK tOSR1/GAPDH (fold veh-CL)” value [4] was 1.10 fold veh-CL and 1.64 fold veh-CL and 1.23 fold veh-CL and 1.65 fold veh-CL and 0.87 fold veh-CL.
